Test results published in article PMC12257390, “Characterization of Clinically Evaluated Small-Molecule Inhibitors of PD-L1 for Immunotherapy” (ACS Medicinal Chemistry Letters, 2025).
Like-named read-outs stand apart in the source and are kept apart here.

Key:
PD-L1 [1] = target: T1, PD-L1 (Homo sapiens, UniProt Q9NZQ7); assay: X-ray co-crystal structure ([…] Å), 1H NMR binding; IC50 from HTRF PD-1/PD-L1 disruption
T1 construct: gene CD274

PD-L1 [2] = target: T1, PD-L1; assay: as above; remark: listed apart in the source

T1 sequence (Q9NZQ7 19-290): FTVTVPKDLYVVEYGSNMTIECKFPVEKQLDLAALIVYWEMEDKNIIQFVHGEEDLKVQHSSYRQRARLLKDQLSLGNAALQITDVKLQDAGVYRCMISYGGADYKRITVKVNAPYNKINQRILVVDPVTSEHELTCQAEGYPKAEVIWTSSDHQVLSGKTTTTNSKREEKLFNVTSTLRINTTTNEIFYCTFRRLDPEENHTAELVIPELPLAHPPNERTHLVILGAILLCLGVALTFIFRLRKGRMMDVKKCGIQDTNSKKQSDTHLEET

| SMILES | IC50 (PD-L1 [1]) [nM] | IC50 (PD-L1 [2]) [nM] |
| --- | --- | --- |
| Cc1c(Nc2nccc3cc(CN4CC[C@@H](O)C4)cnc23)cccc1-c1cccc(-c2nc3cc(CN4CC[C@@H](C(=O)O)C4)cc(C#N)c3o2)c1C [INCB086550] | 2.59 ± 0.09 | – |
| Cc1c(C=Cc2cc(CNC(C)(CO)C(=O)O)ccc2C(F)(F)F)cccc1-c1ccc2c(c1)OCCO2 (centres unmarked) [MAX-10181] | – | 6.88 ± 0.12 |
